Source: patent publication US20250241890A1, “1,4-DIUREAS AND 1,4-DITHIOUREAS AND USES THEREOF” (Purdue Research Foundation, priority 2024, published 2025)

Legend:
Format in all cases: biochemical
[1] = molecular target: T1, tau isoform 0N4R (Homo sapiens, UniProt P10636); experiment: PICUP assay of tau 0N4R oligomer formation; settings: tau 10 μM, compound 50 μM (molar ratio 1:5)
T1 construct: made in house; host or cells: Rosetta BL21 E. coli
Procedure: FIG. 5. […] Compounds 1, 2, and 8 were selected for their α-syn anti-oligomerization activity. Compound 7 was used as di-urea counterpart of compound 8, as compound 1 is the di-urea counterpart of compound 2, a dithiourea derivative. Tau (10 μM) was cross-linked (PICUP assay) with different concentrations of the di-substituted aminoindolyl derivatives at 50 μM (molar ratio 1:5).
Chemical and peptide source. Dimethylsulfoxide (DMSO) and thioflavin-T (ThT) were purchased from Alfa Aesar (Ward Hill, MA). Recombinant α-synuclein (α-syn) was procured from rPeptide (WatKinsville, GA). The recombinant p-tau isoform 1N4R was prepared as published previously (Fortin et al. 2021, Sui et al. 2015, Liu et al. 2020). Concerning the preparation of tau 0N4R, a bacterial expression plasmid consisting of the vector pET30a carrying a cDNA encoding the human Tau 0N4R isoform was a kind gift of Dr. Benjamin Wolozin (Boston University). E. coli stock (Rosetta BL21 E. coli (CamR) containing pET30a [0N4R tau wt] (KanR)) was grown in LB medium supplemented with kanamycin (50 μg/mL) and chloramphenicol (50 μg/mL). […] General Characterizations. ^1H and ^13C {1H} NMR spectra were recorded using a 500 MHz Bruker instrument working at a frequency of 500 MHz for ^1H and at 126 MHz for ^13C. […] Thioflavin fluorescence assays. Thioflavin fluorescence assays were used to monitor fibril formation of commercial recombinant α-syn at a final concentration of 2 μM and treated with control DMSO and different compounds. […] Kinetics of fibril formation have been performed using ThT as published previously.^6, 12, 13, 24 The fluorescence emission experiments were performed with the excitation and emission wavelengths set at 440 and 485 nm, respectively, with a Synergy HT multi-mode microplate reader (BioTek, Winooski, VT). Samples were measured in three replicates. […] For each time point, arbitrary units of fluorescence were calculated from the mean values normalized against the maximum value. The percentage of fluorescence intensity at the plateau phase in Table 1 was expressed as mean #SEM. […]

[2] = molecular target: T2, p-tau isoform 1N4R (Homo sapiens, UniProt P10636); experiment: PICUP assay of p-tau 1N4R oligomer formation; settings: p-tau 4 μM, compound 50 μM (molar ratio 1:12.5)
T2 construct: made in house
T2 sequence (P10636 1-412 isoform P10636-7): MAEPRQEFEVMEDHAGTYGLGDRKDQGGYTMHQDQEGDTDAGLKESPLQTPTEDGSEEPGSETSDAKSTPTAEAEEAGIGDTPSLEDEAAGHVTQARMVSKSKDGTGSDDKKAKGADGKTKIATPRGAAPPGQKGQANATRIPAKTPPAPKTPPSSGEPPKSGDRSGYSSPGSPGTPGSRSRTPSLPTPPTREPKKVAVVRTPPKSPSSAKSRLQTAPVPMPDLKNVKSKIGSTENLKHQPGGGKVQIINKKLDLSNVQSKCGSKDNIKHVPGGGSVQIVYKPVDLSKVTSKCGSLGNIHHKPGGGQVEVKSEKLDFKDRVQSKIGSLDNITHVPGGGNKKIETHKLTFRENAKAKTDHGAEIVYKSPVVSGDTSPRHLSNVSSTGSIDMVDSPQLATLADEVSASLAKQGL

[3] = molecular target: T3, α-syn fibrils (Homo sapiens, UniProt P37840); experiment: Transmission electron microscopy (TEM) of α-syn fibrils; settings: α-syn 2 μM, compound 100 μM, ~22 hours at 37° C.
T3 construct: purchased rPeptide (Watkinsville, GA)

T1 sequence (P10636 1-383 isoform P10636-6): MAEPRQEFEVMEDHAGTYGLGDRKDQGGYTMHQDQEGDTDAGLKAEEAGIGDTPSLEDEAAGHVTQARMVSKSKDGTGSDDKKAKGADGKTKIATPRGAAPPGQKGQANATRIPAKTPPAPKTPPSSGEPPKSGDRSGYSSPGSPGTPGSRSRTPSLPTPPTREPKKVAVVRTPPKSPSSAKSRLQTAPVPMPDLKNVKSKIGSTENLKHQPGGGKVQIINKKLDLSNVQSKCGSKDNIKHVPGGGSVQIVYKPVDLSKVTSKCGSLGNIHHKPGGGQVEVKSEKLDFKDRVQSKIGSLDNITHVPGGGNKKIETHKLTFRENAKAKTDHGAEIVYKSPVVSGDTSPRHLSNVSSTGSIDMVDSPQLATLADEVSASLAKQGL

Structure (SMILES)	effect on tau 0N4R oligomer formation by PICUP [1]	effect on p-tau 1N4R oligomer formation by PICUP [2]	effect on α-syn fibrils by TEM [3]
S=C(Nc1ccc(NC(=S)Nc2cccc3[nH]ccc23)cc1)Nc1cccc2[nH]ccc12 [Compound 2, 3-(1H-indol-4-yl)-1-(4-{[(1H-indol-4-yl)carbamothioyl]amino}phenyl)thiourea]	None of these compounds were able to reduce the tau 0N4R oligomer formation	failed to inhibit p-tau oligomer formation	reduced α-syn fibril formation
S=C(Nc1ccc(NC(=S)Nc2cccc3cc[nH]c23)cc1)Nc1cccc2cc[nH]c12 [Compound 8, 3-(1H-indol-7-yl)-1-(4-{[(1H-indol-7-yl)carbamothioyl]amino}phenyl)thiourea]	None of these compounds were able to reduce the tau 0N4R oligomer formation	–	–
